# Assay results: patent publication US20240261292A1, “COMBINATION THERAPIES” (Janssen Pharmaceutica NV, priority 2021, published 2024)
# pIC50: −log10 of the molar value. Like-named read-outs stand apart in the source and are kept apart here.
# Tests used:
# [1] = test system: MOLM-13 tumors; assay: Efficacy of menin-MLL inhibitor in combination with gilteritinib in MOLM-13 (KMT2A-r) IV model; assay type: in vivo; settings: established MOLM-13 tumors, NSG mice, 4 weeks; Gilteritinib 10 mg/kg po QD × 28; Compound A1 10 mg/kg po QD × 28
# Source text: 12) Efficacy of Menin-MLL Inhibitor in Combination with Gilteritinib, in MOLM-13 (KMT2A-r) IV Model in NSG Mice
# [2] = test system: OCI-AML3 tumors; settings: established OCI-AML3 tumors, NSG mice, 4 weeks; Azacitidine 2 mg/kg ip QD × 7; Compound A1 30 mg/kg po QD × 28
# Description: For survival assessment, results were plotted as the percentage survival against days post tumor implant. Negative clinical signs and/or ≥20% body weight loss was used as a surrogate endpoint for death. Median survival was determined utilizing Kaplan-Meier survival analysis. The percent increased life span (ILS) was calculated as: ((median survival day of treated group—median survival day of control group)/median survival day of control group)×100. Animals failing to reach the surrogate endpoint due to adverse clinical signs (such as ulcerated tumors, body weight loss, etc.) or death unrelated to treatment were censored for the survival assessment.
# [3] = test system: MOLM-13 tumors; settings: established MOLM-13 tumors, NSG mice, 4 weeks; Azacitidine 2 mg/kg ip QD × 7; Compound A1 10 mg/kg po QD × 28
# Description: 11) Efficacy of Menin-MLL Inhibitor in Combination with Azacitidine, in MOLM-13 (KMT2A-r) IV Model in NSG Mice
# Each mouse received an injection of 1×10^5 MOLM-13 cells, and all other parameters were conducted as described for experiment (10).
# [4] = Mouse PK (in vivo T1/2 and oral bioavailability); settings: male, CD-1, mouse, in vivo, fasted male CD-1 mice, formulating agent: A HP-β-CD, A3 Pyrogen free water
# Description: 3) Mouse PK (In Vivo T1/2 and Oral Bioavailability)
# In vivo pharmacokinetics (PK) were assessed in fasted male CD-1 mice (age 6-8 weeks) following a single intravenous (IV, 0.5 or 1.0 mg/kg administered at 2.5 ml/kg) or oral (PO, 5 mg/kg administered at 10 ml solution/kg) dose of test article formulated in a 20% (w:vol) HP-β-CD solution or in Pyrogen free water.
# Plasma and/or whole blood samples were collected from the dorsal metatarsal vein at desired timepoints via serial capillary microsampling (approx. 0.03 mL) using EDTA as an anticoagulant. Concentrations of compound in the plasma and blood samples were analyzed using a qualified LC-MS/MS method. In silico analysis of main pharmacokinetic parameters was performed using WinNonlin (Phoenix™, version 6.1) or similar software.)
# [5] = Metabolic stability in mouse liver microsomes; assay type: in vitro ADME; settings: liver microsomes, pH 7.4, 0.5 mg/mL microsomes protein, read-out: Mouse LM Clint
# Description: 4) Metabolic Stability in Human/Mouse Liver Microsomes
# The objective of this study is to measure in vitro metabolic stability of test compound(s) in human and mouse liver microsomes and provide quantitative information on the rate of metabolic turnover (i.e., determination of the apparent intrinsic clearance of test).
# Test items were prepared at a stock concentration of 10 mM in DMSO. For determination of metabolic turnover, a final working solution was prepared by adding 2 μL of 10 mM DMSO stock solution for test compound or positive control compounds to 198 μL of acetonitrile (100 μM final concentration).
# Incubations were performed as follows: First, liver microsomes were thawed on ice and a master solution containing liver microsomes in 100 mM PBS (phosphate-buffered saline) at pH 7.4 is prepared. Next, the liver microsomes solution was added to the incubation plates and 10 mM NADPH (Nicotinamide-adenine dinucleotide phosphate) was added (MW: 833.4 g/mol; Roche Diagnostics GmbH1, Germany. Dissolved in phosphate buffer (100 mmol/L, pH 7.4)). The mixture was mixed for 10 seconds and pre-warmed in the incubation plate at 37° C. for 10 minutes. The metabolic reaction was initiated with the addition of 5 μL of the 100 μM working solution for test compound or positive control compounds to incubation plate (final test item concentration=1 μM). The reaction final mixture should contain 1 mM NADPH, 0.5 mg/mL microsomes protein and 1 μM test compound or positive control compound in 100 mM PBS at pH 7.4. The percentage of organic solvent in incubation mixture is 1% with DMSO 0.02%.
# The reaction was quenched by transferring 50 μL of the incubated mixture at selected time points into the quenching plate containing 200 μL of cold methanol. […]
# All calculations were carried out using Microsoft Excel. The slope value, k, was determined by linear regression of the natural logarithm of the remaining percentage of the parent drug vs. incubation time curve.
# The in vitro half-life (in vitro t1/2) was determined from the slope value: […]
# [6] = target: hERG potassium channel (Homo sapiens (Human), UniProt Q12809); assay: Membrane potassium current IKr in hERG transfected CHO cells (Protocol 1, QPatch); assay type: cell-based; settings: Protocol 1, CHO cells
# Chain of hERG potassium channel (Q12809 whole entry): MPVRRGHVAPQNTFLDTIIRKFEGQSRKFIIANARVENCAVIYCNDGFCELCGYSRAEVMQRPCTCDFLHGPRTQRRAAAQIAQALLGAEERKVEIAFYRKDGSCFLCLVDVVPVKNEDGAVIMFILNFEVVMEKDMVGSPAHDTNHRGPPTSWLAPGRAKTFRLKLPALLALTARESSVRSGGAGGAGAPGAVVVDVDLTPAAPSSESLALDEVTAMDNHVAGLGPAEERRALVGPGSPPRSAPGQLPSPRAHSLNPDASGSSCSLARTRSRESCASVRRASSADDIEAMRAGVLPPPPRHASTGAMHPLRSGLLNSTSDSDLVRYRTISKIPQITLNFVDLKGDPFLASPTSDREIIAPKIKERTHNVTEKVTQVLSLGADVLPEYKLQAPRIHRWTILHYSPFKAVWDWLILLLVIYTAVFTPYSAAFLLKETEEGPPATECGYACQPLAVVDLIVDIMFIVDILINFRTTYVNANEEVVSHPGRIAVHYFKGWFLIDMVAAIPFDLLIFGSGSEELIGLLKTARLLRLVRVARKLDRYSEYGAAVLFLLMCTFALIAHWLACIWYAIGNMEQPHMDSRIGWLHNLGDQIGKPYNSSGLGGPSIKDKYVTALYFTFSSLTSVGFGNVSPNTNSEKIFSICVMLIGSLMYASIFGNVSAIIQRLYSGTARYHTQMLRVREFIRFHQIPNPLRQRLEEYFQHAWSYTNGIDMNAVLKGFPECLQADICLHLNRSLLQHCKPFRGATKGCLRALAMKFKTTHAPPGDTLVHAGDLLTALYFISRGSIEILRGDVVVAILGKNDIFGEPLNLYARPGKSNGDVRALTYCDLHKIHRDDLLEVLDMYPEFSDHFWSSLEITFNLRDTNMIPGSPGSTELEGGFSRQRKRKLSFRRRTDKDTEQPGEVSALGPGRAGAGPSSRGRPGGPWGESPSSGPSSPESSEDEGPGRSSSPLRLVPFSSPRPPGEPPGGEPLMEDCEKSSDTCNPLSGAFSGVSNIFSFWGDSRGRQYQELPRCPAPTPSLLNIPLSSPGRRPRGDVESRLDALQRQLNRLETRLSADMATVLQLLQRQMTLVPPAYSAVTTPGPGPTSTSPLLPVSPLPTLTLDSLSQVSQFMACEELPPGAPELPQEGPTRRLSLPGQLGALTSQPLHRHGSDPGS
# Description: Experiments were performed using CHO cells stably expressing the hERG potassium channel. Cells were grown at 37° C. and 5% CO2 in culture flasks in Ham's F12 Medium supplemented with 10% heat-inactivated fetal calf serum, hygromycin B (100 μg/ml) and geneticin (100 μg/ml). For use in the automated patch-clamp system QPatch (Sophion) cells were harvested to obtain cell suspension of single cells. […]
# Patch-clamp experiments were performed in the voltage-clamp mode and whole-cell currents were recorded with an automated patch-clamp assay utilizing the QPatch system (Sophion). Current signals were amplified and digitized, stored and analyzed by using the QPatch assay software.
# The holding potential was −80 mV. The hERG current (K^+-selective outward current) was determined as the maximal tail current at −40 mV after a 2 second depolarization to +60 mV. […] The effect of each concentration was determined after 5 min as an average current of 3 sequential voltage pulses. […]
# Concentration/response relations were calculated by non-linear least-squares fits to the individual data points. The half-maximal inhibiting concentration (IC50) was calculated by the fitting routine.
compound,measurement,setting,value
"CCc1nc(C(N)=O)c(Nc2ccc(N3CCC(N4CCN(C)CC4)CC3)c(OC)c2)nc1NC1CCOCC1 [Gilteritinib, gilteritinib]",% ILS,[1],*63%
Nc1ncn([C@@H]2O[C@H](CO)[C@@H](O)[C@H]2O)c(=O)n1 [Azacitidine],% ILS,[2],*18%
same,% ILS,[3],*35%
"CCN(C(=O)c1cc(F)ccc1Oc1nncnc1N1CCC2(C1)CN([C@H](CCCN(C)CCOC)C(C)C)C2)C(C)C [Compound A, (R)-N-ethyl-5-fluoro-N-isopropyl-2-((5-(2-(6-((2-methoxyethyl) (methyl)amino)-2-methylhexan-3-yl)-2,6-diazaspiro[3.4]octan-6-yl)-1,2,4-triazin-6-yl)oxy) benzamide]",half-life,"[4]; iv, 1 mg/kg, single IV 0.5 or 1.0 mg/kg",6.7 h
same,bioavailability,"[4]; po, 5 mg/kg, single PO 5 mg/kg",17%
same,microsomal CLint at 1 μM,[5],< 7.5 µL/min/mg
same,pIC50,[6],< 4.52
